Reference: PMC8368996, “Interactions between AMOT PPxY motifs and NEDD4L WW domains function in HIV-1 release” (The Journal of Biological Chemistry, 2021)
Peptide text beside a SMILES is read from it. * marks the point of attachment. X1 = O=C1OC2(c3cc(F)c(O)cc3Oc3cc(O)c(F)cc32)c2ccc(N3C(=O)CC(*)C3=O)cc21

Biological target: T1, NEDD4L WW3 (Homo sapiens, UniProt Q96PU5)
T1 construct: -WW3(497 -530); GST (N, cleaved yes); made in house; host or cells: E. coli Rosetta-pLysS
Test: Fluorescence polarization (FP) anisotropy binding of labeled AMOT PPxY peptides to recombinant NEDD4L WW3 domain
Conditions: for fold reduction of NEDD4L WW3 binding affinity relative to the wt peptide: FP Kd ratio mutant / wt
Protocol: Each dilution series was performed at least in triplicate. […] The mean Kd values are reported as mean ± SEM.

T1 sequence (Q96PU5 497-530 limits assumed): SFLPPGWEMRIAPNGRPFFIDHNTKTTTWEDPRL

Row | SMILES | fold reduction of NEDD4L WW3 binding affinity relative to the wt peptide [fold] | fold tighter binding than any other pairwise AMOT PPxY-NEDD4L WW interaction (PPxY1-WW3 compared with the 11 other pairs of Fig. 3E)
1 | CSCC[C@H](NC(=O)CNC(=O)[C@H](CCCCN)NC(=O)[C@H](Cc1ccccc1)NC(=O)[C@@H]1CCCN1C(=O)[C@H](Cc1ccc(O)cc1)NC(=O)[C@H](CCC(=O)O)NC(=O)[C@@H]1CCCN1C(=O)[C@H](CC(C)C)NC(=O)[C@@H]1CCCN1C(=O)CNC(=O)[C@H](CCCNC(=N)N)NC(=O)[C@H](Cc1c[nH]cn1)NC(=O)[C@H](CCC(=O)O)NC(=O)[C@H](CCSC)NC(=O)[C@@H](N)CSC1CC(=O)N(c2ccc3c(c2)C(=O)OC32c3cc(F)c(O)cc3Oc3cc(O)c(F)cc32)C1=O)C(N)=O (stereo partly shown) [(P/L)PPxY2] (H-C(X1)MEHRGPLPEYPFKGM-NH2; N-terminus and C-terminus assumed) | 2.8 | 
2 | CSCC[C@H](NC(=O)[C@@H](N)CSC1CC(=O)N(c2ccc3c(c2)C(=O)OC32c3cc(F)c(O)cc3Oc3cc(O)c(F)cc32)C1=O)C(=O)N[C@@H](CCC(N)=O)C(=O)N[C@@H](CC(N)=O)C(=O)N[C@@H](CC(N)=O)C(=O)N[C@@H](CCC(=O)O)C(=O)N[C@@H](CCC(=O)O)C(=O)N[C@@H](CC(C)C)C(=O)N1CCC[C@H]1C(=O)N[C@H](C(=O)N[C@@H](Cc1ccc(O)cc1)C(=O)N[C@@H](CCC(=O)O)C(=O)N[C@@H](CCC(=O)O)C(=O)N[C@@H](C)C(=O)N[C@@H](CCCCN)C(=O)N[C@H](C(N)=O)C(C)C)[C@@H](C)O (stereo partly shown) [PPxY1] (H-C(X1)MQNNEELPTYEEAKV-NH2; N-terminus and C-terminus assumed) |  | more than 5 fold
3 | CSCC[C@H](NC(=O)[C@@H](N)CSC1CC(=O)N(c2ccc3c(c2)C(=O)OC32c3cc(F)c(O)cc3Oc3cc(O)c(F)cc32)C1=O)C(=O)N[C@@H](CCC(N)=O)C(=O)N[C@@H](CC(N)=O)C(=O)N[C@@H](CC(N)=O)C(=O)N[C@@H](CCCCN)C(=O)N[C@@H](CCCCN)C(=O)N[C@@H](CC(C)C)C(=O)N1CCC[C@H]1C(=O)N[C@H](C(=O)N[C@@H](Cc1ccc(O)cc1)C(=O)N[C@@H](CCC(=O)O)C(=O)N[C@@H](CCC(=O)O)C(=O)N[C@@H](C)C(=O)N[C@@H](CCCCN)C(=O)N[C@H](C(N)=O)C(C)C)[C@@H](C)O (stereo partly shown) [E104K/E105K] (H-C(X1)MQNNKKLPTYEEAKV-NH2; N-terminus and C-terminus assumed) | 6 | 
4 | CSCC[C@H](NC(=O)[C@@H](N)CSC1CC(=O)N(c2ccc3c(c2)C(=O)OC32c3cc(F)c(O)cc3Oc3cc(O)c(F)cc32)C1=O)C(=O)N[C@@H](CCC(N)=O)C(=O)N[C@@H](CC(N)=O)C(=O)N[C@@H](CC(N)=O)C(=O)N[C@@H](CCC(=O)O)C(=O)N[C@@H](CCC(=O)O)C(=O)N[C@@H](CC(C)C)C(=O)N1CCC[C@H]1C(=O)N[C@H](C(=O)N[C@@H](Cc1ccc(O)cc1)C(=O)N[C@@H](CCC(=O)O)C(=O)N[C@@H](CCC(=O)O)C(=O)N[C@@H](CCCCN)C(=O)N[C@@H](CCCCN)C(=O)N[C@H](C(N)=O)C(C)C)[C@@H](C)O (stereo partly shown) [A112K] (H-C(X1)MQNNEELPTYEEKKV-NH2; N-terminus and C-terminus assumed) | 8 | 
